Read-outs that look alike come from different tables or passages of the source.
What was measured:
[1] = target: T1, farnesyl protein transferase (FPT) (Rattus norvegicus, UniProt Q02293+Q04631); test: In vitro enzyme assay: inhibition of farnesyl protein transferase (FPT), Ras-CVLS farnesylation; assay type: biochemical
T1 construct: were partially purified from rat brain by ammonium sulfate fractionation; from tissue; host or cells: rat brain
Excerpt: (§1) 1. In vitro enzyme assays: Inhibition of farnesyl protein transferase and geranylgeranyl protein transferase.
Both farnesyl protein transferase (FPT) and geranylgeranyl protein transferase (GGPT) I were partially purified from rat brain by ammonium sulfate fractionation followed by Q-Sepharose (Pharmacia, Inc.) anion exchange chromatography essentially as described by Yokoyama et al (Yokoyama, K., et al., (1991), A protein geranylgeranyltransferase from bovine brain: Implications for protein prenylation specificity, Proc. Natl. Acad. Sci USA 88: 5302-5306, the disclosure of which is incorporated herein by reference thereto). Human farnesyl protein transferase was also expressed in E. coli, using cDNA clones encoding both the a and b subunits. The methods used were similar to those published (Omer, C. et al., (1993), Characterization of recombinant human farnesyl protein transferase: Cloning, expression, farnesyl diphosphate binding, and functional homology with yeast prenyl-protein transferases, Biochemistry 32:5167-5176). Human farnesyl protein transferase was partially-purified from the soluble protein fraction of E. coli as described above. the tricyclic farnesyl protein transferase inhibitors disclosed herein inhibited both human and rat enzyme with similar potencies. Two forms of val^12 -Ha-Ras protein were prepared as substrates for these enzymes, differing in their carboxy terminal sequence. One form terminated in cysteine-valine-leucine-serine (Ras-CVLS) the other in cystein-valine-leucine-leucine (Ras-CVLL). Ras-CVLS is a substrate for the farnesyl protein transferase while Ras-CVLL is a substrate for geranylgeranyl protein transferase I. The cDNAs encoding these proteins were constructed so that the proteins contain an amino-terminal extension of 6 histidine residues. Both proteins were expressed in Escherichia coli and purified using metal chelate affinity chromatography. The radiolabelled isoprenyl pyrophosphate substrates, [^3 H]farnesyl pyrophosphate and [^3 H]geranylgeranyl pyrophosphate, were purchased from DuPont/New England Nuclear.
Several methods for measuring farnesyl protein transferase activity have been described (Reiss et al 1990, Cell 62: 81; Schaber et al 1990, J. Biol. Chem. 265: 14701; Manne et al 1990, PNAS 87: 7541; and Barbacid & Manne 1993, U.S. Pat. No. 5,185,248). The activity was assayed by measuring the transfer of [^3 H]farnesyl from [^3 H]farnesyl pyrophosphate to Ras-CVLS using conditions similar to those described by Reiss et al. 1990 (Cell 62: 81) The reaction mixture contained 40 mM Hepes, pH 7.5; 20 mM magnesium chloride; 5 mM dithiothreitol; 0.25 μM [^3 H]farnesyl pyrophosphate; […] Q-Sepharose-purified farnesyl protein transferase; the indicated concentration of tricyclic compound or dimethylsulfoxide (DMSO) vehicle control (5% DMSO final); and […] Ras-CVLS in a total volume of […]. The reaction was allowed to proceed for 30 minutes at room temperature and then stopped with 0.5 ml of 4% sodium dodecyl sulfate (SDS) followed by 0.5 ml of cold 30% trichloracetic acid (TCA). Samples were allowed to sit on ice for 45 minutes and precipitated Ras protein was then collected on GF/C filter paper mats using a Brandel cell harvester. Filter mats were washed once with 6% TCA, 2% SDS and radioactivity was measured in a Wallac 1204 Betaplate BS liquid scintillation counter. Percent inhibition was calculated relative to the DMSO vehicle control.

[2] = target: T2, geranylgeranyl protein transferase (GGPT) I (Rattus norvegicus, UniProt P53610+Q04631); test: In vitro enzyme assay: inhibition of geranylgeranyl protein transferase (GGPT) I, Ras-CVLL as acceptor; assay type: biochemical
T2 construct: were partially purified from rat brain by ammonium sulfate fractionation; from tissue; host or cells: rat brain
Excerpt: as §1
Both farnesyl protein transferase (FPT) and geranylgeranyl protein transferase (GGPT) I were partially purified from rat brain by ammonium sulfate fractionation followed by Q-Sepharose (Pharmacia, Inc.) anion exchange chromatography essentially as described by Yokoyama et al (Yokoyama, K., et al., (1991), A protein geranylgeranyltransferase from bovine brain: Implications for protein prenylation specificity, Proc. Natl. Acad. Sci USA 88: 5302-5306, the disclosure of which is incorporated herein by reference thereto). Human farnesyl protein transferase was also expressed in E. coli, using cDNA clones encoding both the a and b subunits. The methods used were similar to those published (Omer, C. et al., (1993), Characterization of recombinant human farnesyl protein transferase: Cloning, expression, farnesyl diphosphate binding, and functional homology with yeast prenyl-protein transferases, Biochemistry 32:5167-5176). Human farnesyl protein transferase was partially-purified from the soluble protein fraction of E. coli as described above. the tricyclic farnesyl protein transferase inhibitors disclosed herein inhibited both human and rat enzyme with similar potencies. […]

[3] = tested on: Ras-CVLS processing in COS monkey kidney cells; test: Cell-Based Assay: Ras-CVLS processing in transfected COS monkey kidney cells; details: Primates, read-out: COS IC50 (inhibition of Ras-CVLS processing)
Excerpt: 2. Cell-Based Assay: Transient expression of val^12 -Ha-Ras-CVLS and val^12 -Ha-Ras-CVLL in COS monkey kidney cells: Effect of farnesyl protein transferase inhibitors on Ras processing and on disordered cell growth induced by transforming Ras.
COS monkey kidney cells were transfected by electroporation with the plasmid pSV-SPORT (Gibco/BRL) containing a cDNA insert encoding either Ras-CVLS or Ras-CVLL, leading to transient overexpression of a Ras substrate for either farnesyl protein transferase or geranylgeranyl protein transferase I, respectively (see above). […]
Membranes were blocked by incubation overnight at 4° C. in PBS containing 2.5% dried milk and 0.5% Tween-20 and then incubated with a Ras-specific monoclonal antibody, Y13-259 (Furth, M. E., et al., (1982), Monoclonal antibodies to the p21 products of the transforming gene of Harvey murine sarcome virus and of the cellular ras gene family, J. Virol. 43: 294-304), in PBS containing 1% fetal calf serum for one hour at room temperature. […] The presence of processed and unprocessed Ras-CVLS or Ras-CVLL was detected using a colorimetric peroxidase reagent (4-chloro-1-naphthol) as described by the manufacturer (Bio-Rad).

[4] = tested on: T24-BAG4 human bladder carcinoma cells; test: Cell Mat Assay: inhibition of tumor cell growth; assay type: cell-based; details: 336 h, tIC50, 14 d colony formation
Method: (§2) Normal human HEPM fibroblasts were planted in 3.5 cm dishes at a density of 5×10^4 cells/dish in 2 ml growth medium, and incubated for 3-5 d to achieve confluence. Medium was aspirated from each dish and the indicator tumor cells, T24-BAG4 human bladder carcinoma cells expressing an activated H-ras gene, were planted on top of the fibroblast monolayer at a density of 2×10^3 cells/dish in 2 ml growth medium, and allowed to attach overnight. Compound-induced colony inhibition was assayed by addition of serial dilutions of compound directly to the growth medium 24 h after tumor cell planting, and incubating cells for an additional 14 d to allow colony formation. Assays were terminated by rinsing monolayers twice with phosphate-buffered saline (PBS), fixing the monolayers with a 1% glutaraldehyde solution in PBS, then visualizing tumor cells by staining with X-Gal (Price, J., et al., Lineage analysis in the vertebrate nervous system by retrovirus-mediated gene transfer, Proc. Natl. Acad. Sci. 84, 156-160(1987)). In the colony inhibition assay, compounds were evaluated on the basis of two IC50 values: the concentration of drug required to prevent the increase in tumor cell number by 50% (tIC50) and the concentration of drug required to reduce the density of cells comprising the cell mat by 50% (mIC50). Both IC50 values were obtained by determining the density of tumor cells and mat cells by visual inspection and enumeration of cells per colony and the number of colonies under the microscope. The therapeutic index of the compound was quantitatively expressed as the ratio of mIC50 /tIC50, with values greater than one indicative of tumor target specificity.

[5] = tested on: Normal human HEPM fibroblasts; test: Cell Mat Assay: inhibition of normal cell growth (cell mat); assay type: cell-based; details: Fibroblast, mIC50, normal cell monolayer
Method: as §2

[6] = Table 3, comparison of FPT and GGPT inhibition, read-out: ENZYME INHIBITION FPT IC50

Row | IC50 ([1]; Table 2, read-out: FPT IC50) [nM] | IC50 [1, 6] [nM] | IC50 ([2]; Table 3, unit printed in the cell) [nM] | IC50 [4] [nM] | IC50 ([2]; Table 3) [nM] | Structure (SMILES) | IC50 [3] [nM] | IC50 [5] [nM]
1 | 710 | 710 | 7400 | < 3100 |  | O=S(=O)(c1ccccc1)N1CCC/C(=C2\c3ccc(Cl)cc3CCc3cccnc32)C1 [Compound E-2E] | 2500 | > 50000
2 | < 440 | 470 |  | 12500 | < 13000 | O=S(=O)(c1cccs1)N1CCC/C(=C2\c3ccc(Cl)cc3CCc3cccnc32)C1 [Compound E-1G] |  | > 25000
3 | 590 |  |  |  |  | O=S(=O)(c1ccccc1)N1CC/C(=C2\c3ccc(Cl)cc3CCc3cccnc32)C1 [Compound E-2] | > 5000 | 

Source: US5684013A, “Tricyclic compounds useful for inhibition of g-protein function and for treatment of proliferative diseases” (Schering Corporation, priority 1995, dated 1997)
